Patent US20120095013A1, “USE OF KMUP-3 FOR MYOCARDIAL INFARCTION” (KAOHSIUNG MEDICAL UNIVERSITY, priority 2010, published 2012)

Legend:
hypertensive rats = conditions: Wu et al., 2001, Yeh et al., 2010; cited from earlier work
aortic smooth muscle = conditions: through opening a KATP channel and increasing eNOS; attenuated by glibenclamide; Wu et al., 2005; Lin et al., 2006; cited from earlier work
MI rats [1] = experiment: Echocardiography 4 weeks post-surgery in MI rats (LVEDD, LVESD, fractional shortening); type: in vivo, rat; conditions: KMUP-3 for 4 weeks, FIG. 2
Source text: (§1) MI is induced by ligation of the left anterior descending (LAD) coronary artery according to Liang et al., 2006. […] The LAD is ligated with 6.0 silk at 2 mm from the origin, and the wound is closed with primary suture. After the operation, the animals are observed until fully conscious. Sham animals undergo similar thoracotomy and pericardiotomy, except that the ligature around the coronary artery is not tied. Surviving rats are fitted with ALZET osmotic minipumps (Model 2ML4, DURECT Corporation, Cupertino, Calif., USA) immediately after recovery. At this time, most of the rats are still anaesthetized from the previously administered pentobarbital sodium; a further bolus dose of pentobarbital sodium (15 mg·kg^−1) is given if necessary. […] In the treatment group, the minimumps are filled with hydrochloride of KMUP-3 (KMUP-3·HCl; 0.3 mg·kg^−1·day^−1). In the sham and MI groups, the minipumps are filled with saline.

TIMP-1 [2] = experiment: Western blot of TIMP-1 protein expression in rat hearts; type: in vivo; conditions: Western blot densitometry, n=9-10, FIG. 5b
MI rats [3] = experiment: Cardiac structure and haemodynamics in rats after myocardial infarction (LAD ligation), LV catheter; type: in vivo, rat
Source text: Male rats (250-300 g) are provided by the National Laboratory Animal Breeding and Research Center (Taipei, Taiwan) and housed under constant temperature and controlled illumination. Food and water are available ad libitum. MI is induced by ligation of the left anterior descending (LAD) coronary artery according to Liang et al., 2006. […] The LAD is ligated with 6.0 silk at 2 mm from the origin, and the wound is closed with primary suture. After the operation, the animals are observed until fully conscious. Sham animals undergo similar thoracotomy and pericardiotomy, except that the ligature around the coronary artery is not tied. All the animals are administered with s.c. doses of analgesia (ketoprofen; 3 mg·kg^−1) and antibiotics (gentamicin; 0.7 mg·kg^−1) for 2 days. This study was approved by the Animal Care and Use Committee at Kaohsiung Medical University. Surviving rats are fitted with ALZET osmotic minipumps (Model 2ML4, DURECT Corporation, Cupertino, Calif., USA) immediately after recovery. At this time, most of the rats are still anaesthetized from the previously administered pentobarbital sodium; a further bolus dose of pentobarbital sodium (15 mg·kg^−1) is given if necessary. […] In the treatment group, the minimumps are filled with hydrochloride of KMUP-3 (KMUP-3·HCl; 0.3 mg·kg^−1·day^−1). In the sham and MI groups, the minipumps are filled with saline. After echocardiography, a PE-50 catheter is inserted through the right carotid artery to measure the LV systolic pressure (LVSP), LV end-diastolic pressure (LVEDP) and maximum rates of pressure development (LV+dP/dt) and relaxation (LV−dP/dt). […] The hearts are then excised and the atria and right ventricles are dissected out. Sections of the LV are embedded in mounting medium and the remaining tissues are transferred in the liquid nitrogen for further evaluation. Throughout the whole procedure, a further bolus dose of pentobarbital sodium (15 mg·kg^−1) is given if required.

MI rats [4] = experiment: Cardiac fibrosis by Masson's trichrome staining in MI rats; type: in vivo, rat
Source text: as §1, with “mg·kg^-1)” for “mg·kg^−1)”, “mg·kg^-1·day^-1).” for “mg·kg^−1·day^−1).”, “saline. Histological analyses are performed to all of the heart. Rats are randomly chosen to be analyzed for area of risk after coronary artery ligature by Evan blue staining as described by Harada et al. (2005). […] Ten sections in each heart are analyzed for the percentage of fibrosis. […] The total LV and infarct area and fibrosis region are measured by an investigator without knowledge of the treatment group using US NIH ImageJ, 1.42q.” for “saline.”

MMP-9 [5] = experiment: Western blot of MMP-9 protein expression in rat hearts; type: in vivo; conditions: Western blot densitometry, n=9-10, FIG. 5a
TIMP-1 [6] = experiment: TIMP-1 protein expression in TGF-β-stimulated human cardiac fibroblasts (HCFs); type: cell-based; conditions: KMUP-3 10 mmol·L−1, TGF-β 10 ng·mL−1, FIG. 6b
Protocol: (§2) Human cardiac fibroblasts (HCFs; catalogue number: 306-05f) are purchased from Cell Applications Inc. (San Diego, Calif., USA). The cells are cultured as monolayer in Dulbecco's modified Eagle's medium containing 10% fetal bovine serum at 37° C. in 95% humidity and 5% CO2. Cells are harvested at passage 3-6 for experiment. Before treatment, HCFs are washed twice with serum-free medium and switched to serum-free medium for 24 h. To stimulate MMP-9 expression, the cultures are treated with 10 ng·mL^−1 transforming growth factor-b (TGF-β) for 24 h. HCFs are pretreated with KMUP-3 (10 mmol·L^−1) or in combination with L-NAME (100 mmol·L^−1) for 1 h before addition of 10 ng·mL^−1 TGF-β for 24 h. Each experiment is repeated three times.
(§3) The hearts are sonicated in 50 mmol·L^−1 Tris for 10 s two times and centrifuged at 13,000 rpm at 4° C. for 30 min. The protein concentration of the supernatants is determined by using bovine serum albumin as the standard. The cell extracts are boiled in ratio of 4:1 with sample buffer (100 mmol·L^−1 Tris, pH 6.8, 20% glycerol, 4% SDS, and 0.2% bromophenol blue). Electrophoresis is performed using 10% SDS-polyacrylamide gel electrophoresis and transferred to nitrocellulose membranes (Millipore Corporation, Billerica, Mass., USA). […] The intensity of the bands is quantified by densitometry.

[7] = system: endothelial nitric oxide synthase (eNOS); conditions: Wu et al., 2005; Lin et al., 2006; cited from earlier work
phosphodiesterase = conditions: Wu et al., 2005; Lin et al., 2006; cited from earlier work
MI rats [8] = experiment: Area of risk (Evans blue) and infarct size (TTC staining) in MI rats; type: in vivo, rat
Source text: as §1, with “mg·kg^-1)” for “mg·kg^−1)”, “mg·kg^-1·day^-1).” for “mg·kg^−1·day^−1).”, “saline. Histological analyses are performed to all of the heart. Rats are randomly chosen to be analyzed for area of risk after coronary artery ligature by Evan blue staining as described by Harada et al. (2005). […] Ten sections in each heart are analyzed for the percentage of fibrosis. […] The total LV and infarct area and fibrosis region are measured by an investigator without knowledge of the treatment group using US NIH ImageJ, 1.42q.” for “saline.”

eNOS = experiment: Western blot of eNOS protein expression in rat hearts; type: in vivo; conditions: Western blot densitometry, versus MI group, FIG. 5c
MMP-9 [9] = experiment: MMP-9 protein expression in TGF-β-stimulated human cardiac fibroblasts (HCFs); type: cell-based
Protocol: as §2, §3

[10] = KMUP-3·HCl 0.3 mg·kg−1·day−1 by osmotic minipump, 4 weeks, n=10

Cn1c(=O)c2c(ncn2CCN2CCN(c3ccccc3Cl)CC2)n(C)c1=O [KMUP-1, 7-[2-[4-(2-chlorobenzene)piperazinyl]ethyl]-1,3-dimethylxanthine]
Cardioprotection, cardiac hypertrophy and fibrosis, in words (hypertensive rats): therapeutic effect on the cardioprotection in hypertensive rats, the reducing of the cardiac hypertrophy and fibrosis

Cn1c(=O)c2c(ncn2CCN2CCN(c3ccc([N+](=O)[O-])cc3)CC2)n(C)c1=O [KMUP-3, 7-[2-[4-(4-nitrobenzene)-piperazinyl]ethyl]-1,3-dimethylxanthine]
Aortic smooth muscle relaxation, in words (aortic smooth muscle): may induce aortic smooth muscle relaxation | Cardiac remodeling and dysfunction by echocardiography (LVEDD, LVESD, FS), in words (MI rats [1]): cardiac remodeling and dysfunction may be prevented | TIMP-1 expression in MI rat hearts (TIMP-1 [2]): increases significantly | Cardiac systolic function (LV+dP/dt), in words (MI rats [3]; 0.3 mg·kg−1·day−1 for 4 weeks): improved cardiac systolic function | Cardiac remodelling (hypertrophy, heart weight to body weight ratio), in words (MI rats [3]; KMUP-3 treatment 4 weeks): prevents the cardiac remodelling process | HR (heart rate) (MI rats [3]; [10]): 421 ± 5 bpm | HW (heart weight) (MI rats [3]; [10]): 1219 ± 39 mg | HW/BW (MI rats [3]; [10]): 2.72 ± 0.04 mg/g | LV +dP/dt (MI rats [3]; [10]): 7637 ± 333 mmHg/s | LV −dP/dt (MI rats [3]; [10]): −5379 ± 441 mmHg/s | LVEDP (MI rats [3]; [10]): 12.6 ± 2.3 mmHg | LVSP (MI rats [3]; [10]): 140.6 ± 4.2 mmHg | Heart rate change, in words (MI rats [3]; after KMUP-3 treatment, not statistically significant): small increase in heart rate | Cardiac fibrosis in central-infarct and peri-infarct areas (MI rats [4]; n=10, FIG. 4a-b): attenuates cardiac fibrosis | Percentage of fibrosis in non-infarcted area (MI rats [4]; n=10, FIG. 4c): comparable with that of the sham-operated hearts | MMP-9 expression in MI rat hearts (MMP-9 [5]): decreases MMP-9 expression | TIMP-1 expression in HCFs (TIMP-1 [6]): significantly enhanced | eNOS in HUVECs, in words [7]: enhance endothelial nitric oxide synthase (eNOS) | Phosphodiesterase inhibitor potency, in words (phosphodiesterase): more potent than KMUP-1 | Area of risk after coronary artery ligature (MI rats [8]; Evans blue staining, n=5, FIG. 3a): no difference between treatment groups | Infarction size (infarct area of LV) (MI rats [8]; TTC staining, MI rats after KMUP-3 treatment, n=10, MI group 47.4±3.7%, P<0.05): 33.6±1.7% | eNOS expression in MI rat hearts (eNOS): increases significantly | MMP-9 expression in HCFs (MMP-9 [9]; KMUP-3 10 mmol·L−1, 1 h before TGF-β 10 ng·mL−1 for 24 h, FIG. 6a): attenuates the expression of MMP-9

COC(=O)[C@@H](N)CCCNC(=N)N[N+](=O)[O-] [L-NAME, N^ω-nitro-L-arginine methyl ester, reference compound]
Effect of eNOS inhibitor pretreatment on KMUP-3 inhibition of MMP-9 expression in HCFs (MMP-9 [9]; L-NAME 100 mmol·L−1 with KMUP-3 10 mmol·L−1, TGF-β 10 ng·mL−1, FIG. 6a): reverses the inhibition of MMP-9 expression
